Results published in US10508077B2 (FORMA Therapeutics, Inc., priority 2015, dated 2019).

What follows are compounds tested against T1, Full length human recombinant HDAC8 protein (Homo sapiens, UniProt Q9BY41) (assay: In vitro histone deacetylase assay: enzymatic HDAC8 assay, electrophoretic mobility shift). Conditions: substrate RHKK(Ac)-NH2, 1 nM enzyme, compounds listed under IC50 range headings.
T1 construct: Full length human recombinant HDAC8 protein was expressed in baculoviral system; made in house
T1 sequence (Q9BY41 1-377): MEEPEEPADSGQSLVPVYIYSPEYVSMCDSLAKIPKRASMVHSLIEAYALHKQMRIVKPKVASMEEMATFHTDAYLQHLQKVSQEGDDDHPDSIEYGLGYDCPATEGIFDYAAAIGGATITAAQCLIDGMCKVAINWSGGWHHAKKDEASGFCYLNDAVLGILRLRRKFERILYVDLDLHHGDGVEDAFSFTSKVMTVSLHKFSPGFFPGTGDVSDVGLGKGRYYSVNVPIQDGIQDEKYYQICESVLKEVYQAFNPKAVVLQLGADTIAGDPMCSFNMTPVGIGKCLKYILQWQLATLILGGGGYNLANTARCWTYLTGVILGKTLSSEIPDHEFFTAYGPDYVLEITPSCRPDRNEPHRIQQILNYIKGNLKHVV
Assay type: biochemical
Method: The enzymatic HDAC8 assay was performed using electrophoretic mobility shift assay. Full length human recombinant HDAC8 protein was expressed in baculoviral system and purified by affinity chromatography. The enzymatic reactions were assembled in 384 well plates in a total volume of 25 μL in a reaction buffer composing: 100 mM HEPES, pH7.5, 25 mM KC, 0.1% bovine serum albumin, 0.01% Triton X-100, 1% DMSO (from compounds) 2 μM of the fluorescently labeled peptide substrate and enzyme. The enzyme was added at a final concentration of 1 nM. The peptide substrate RHKK(Ac)-NH2 was used. The compounds were tested at 12 concentrations spaced by 3× dilution intervals. Negative control samples (0%-inhibition in the absence of inhibitor) and positive control samples (100%-inhibition) were assembled in replicates of four in each assay plate. The reactions were incubated at 25° C. and quenched by the addition of 45 μL of termination buffer (100 mM HEPES, pH 7.5, 0.01% Triton X-100, 0.05% SDS).
The terminated assay plates were analyzed on LabChip® 3000 microfluidic electrophoresis instrument (Perkin Elmer/Caliper Life Sciences). The fluorescence intensity of the electrophoretically separated de-acetylated product and substrate peptide was measured. Activity in each sample was determined as the product to sum ratio (PSR): P/(S+P), where P is the peak height of the product peptide and S is the peak height of the substrate peptide. Percent inhibition (Pinh) is determined using the following equation: Pinh=(PSR0%−PSRinh)/(PSR0%−PSR100%)*100, where PSRinh is the product sum ratio in the presence of inhibitor, PSR0% is the average product sum ration in the absence of inhibitor and PSR 100% is the average product sum ratio in 100%-inhibition control samples. The IC50 values of inhibitors were determined by fitting the %-inhibition curves with 4 parameter dose-response model using XLfit 4 software. Ranges of IC50 values for compounds of the invention are disclosed in Table 26.

Row | IC50 [µM] | Structure (SMILES)
1 | 1 to 10 | O=C(/C=C/c1ccccc1Nc1nc2ccccc2[nH]1)NO [Example I-1, (E)-3-(2-((1H-benzo[d]imidazol-2-yl)amino)phenyl)-N-hydroxyacrylamide]
2 | 1 to 10 | COCCn1c(CNc2ccccc2/C=C/C(=O)NO)nc2ccccc21 [Example I-2, (E)-N-hydroxy-3-(2-(((1-(2-methoxyethyl)-1H-benzo[d]imidazol-2-yl)methyl)amino)phenyl)acrylamide]
3 | 1 to 10 | COCCn1c(Nc2ccccc2/C=C/C(=O)NO)nc2ccccc21 [Example I-3, (E)-N-hydroxy-3-(2-((1-(2-methoxyethyl)-1H-benzo[d]imidazol-2-yl)amino)phenyl)acrylamide]
4 | 1 to 10 | O=C(/C=C/c1ccccc1NCc1nc2ccc(C(F)(F)F)cc2[nH]1)NO [Example I-4, (E)-N-hydroxy-3-(2-(((6-(trifluoromethyl)-1H-benzo[d]imidazol-2-yl)methyl)amino)phenyl)acrylamide]
5 | 1 to 10 | O=C(/C=C/c1ccccc1NC(=O)Nc1cccc(C(F)(F)F)c1)NO [Example I-5, (E)-N-hydroxy-3-(2-(3-(3-(trifluoromethyl)phenyl)ureido)phenyl)acrylamide]
6 | 1 to 10 | O=C(/C=C/c1ccccc1NC(=O)C1(O)CCC1)NO [Example I-6, (E)-1-hydroxy-N-(2-(3-(hydroxyamino)-3-oxoprop-1-en-1-yl)phenyl)cycobutane-1-carboxamide]
7 | 1 to 10 | O=C(/C=C/c1ccccc1NS(=O)(=O)c1cccc(C(F)(F)F)c1)NO [Example I-7, (E)-N-hydroxy-3-(2-(3-(trifluoromethyl)phenylsulfonamido)phenyl)acrylamide]
8 | 1 to 10 | NC1CCN(c2ccccc2/C=C/C(=O)NO)CC1 [Example I-8, (E)-3-(2-(4-aminopiperidin-1-yl)phenyl)-N-hydroxyacrylamide 2,2,2-trifluoroacetate]
9 | 1 to 10 | COc1ccc(CC(=O)NC2CCN(c3ccccc3/C=C/C(=O)NO)CC2)cc1 [Example I-9, (E)-N-hydroxy-3-(2-(4-(2-(4-methoxyphenyl)acetami-do)piperidin-1-yl)phenyl)acrylamide]
10 | 1 to 10 | O=C(/C=C/c1ccccc1N1CCC(NC(=O)COc2ccc(Cl)cc2)CC1)NO [Example I-10, (E)-3-(2-(4-(2-(4-chlorophenoxy)acetami-do)piperidin-1-yl)phenyl)-N-hydroxyacrylamide]
11 | 1 to 10 | O=C(/C=C/c1ccccc1N1CCC(NC(=O)c2ccc3cccnc3n2)CC1)NO [Example I-11, (E)-N-(1-(2-(3-(hydroxyamino)-3-oxoprop-1-en-1-yl)phenyl)piperidin-4-yl)-1,8-naphthyridine-2-carboxamide]
12 | 1 to 10 | CN1CC(C(=O)NC2CCN(c3ccccc3/C=C/C(=O)NO)CC2)C1 [Example I-12, (E)-N-(1-(2-(3-(hydroxyamino)-3-oxoprop-1-en-1-yl)phenyl)piperidin-4-yl)-1-methylazetidine-3-carboxamide]
13 | 1 to 10 | O=C(/C=C/c1ccccc1N1CCC(NC(=O)Cc2ccc(Cl)cc2)CC1)NO [Example I-13, (E)-3-(2-(4-(2-(4-chlorophenyl)acetamido)piperidin-1-yl)phenyl)-N-hydroxyacrylamide]
14 | 1 to 10 | Cc1cccc(C(=O)NC2CCN(c3ccccc3/C=C/C(=O)NO)CC2)c1 [Example I-14]
15 | 1 to 10 | Cc1oc(-c2ccc(Cl)cc2)cc1C(=O)NC1CCN(c2ccccc2/C=C/C(=O)NO)CC1 [Example I-15]
16 | 1 to 10 | Cc1c(C(=O)NC2CCN(c3ccccc3/C=C/C(=O)NO)CC2)cnn1-c1ccccc1 [Example I-16]
17 | 1 to 10 | CN(C)Cc1ccccc1CNC1CCN(c2ccccc2C=CC(=O)NO)CC1 [Example I-17, (E)-3-(2-(4-((2-((dimethylamino)methyl)benzyl)amino)piperidin-1-yl)phenyl-N-hydroxyacrylamide]
18 | 1 to 10 | CN(C)Cc1cccc(CNC2CCN(c3ccccc3/C=C/C(=O)NO)CC2)c1 [Example I-18, (E)-3-(2-(4-((3-((dimethylamino)methyl)benzyl)amino)piperidin-1-yl)phenyl)-N-hydroxyacrylamide]

Row | IC50 [µM] | Structure (SMILES)
19 | 1 to 10 | O=C(/C=C/c1ccccc1N1CCN(C(=O)C2CCCO2)CC1)NO (centres unmarked) [Example I-19, (E)-N-hydroxy-3-(2-(4-(tetrahydrofuran-2-carbonyl)piperazin-1-yl)phenyl)acrylamide]
20 | 1 to 10 | O=C(/C=C/c1ccccc1N1CCN(C(=O)C2Cc3ccccc3C2)CC1)NO [Example I-20, (E)-3-(2-(4-(2,3-dihydro-1H-indene-2-carbonyl)-piperazin-1-yl)phenyl)-N-hydroxyacrylamide]
21 | 1 to 10 | COCC1(C(=O)N2CCN(c3ccccc3/C=C/C(=O)NO)CC2)CCC1 [Example I-21, (E)-N-hydroxy-3-(2-(4-(1-(methoxymethyl)cyclobu-tane-1-carbonyl)piperazin-1-yl)phenyl)acrylamide]
22 | 1 to 10 | O=C(/C=C/c1ccccc1N1CCN(C(=O)c2cc3ccccn3n2)CC1)NO [Example I-22, (E)-N-hydroxy-3-(2-(4-(pyrazolo[1,5-a]pyridine-2-carbonyl)piperazin-1-yl)phenyl)acrylamide]
23 | 1 to 10 | O=C(/C=C/c1ccccc1N1CCN(C(=O)C2CCC(F)(F)CC2)CC1)NO [Example I-23]
24 | 1 to 10 | O=C(/C=C/c1ccccc1N1CCN(C(=O)CC23CCCN2CCC3)CC1)NO [Example I-24, (E)-N-hydroxy-3-(2-(4-(2-(tetrahydro-1H-pyrrolizin-7a(5H)-yl)acetyl)piperazin-1-yl)phenyl)acrylamide]
25 | 1 to 10 | O=C(/C=C/c1ccccc1N1CCN(C(=O)c2cc3ccccc3[nH]2)CC1)NO [Example I-25, (E)-3-(2-(4-(1H-indole-2-carbonyl)piperazin-1-yl)phenyl)-N-hydroxyacrylamide]
26 | 1 to 10 | CC(C)S(=O)(=O)NC1CCN(c2ccccc2/C=C/C(=O)NO)CC1 [Example I-26]
27 | 1 to 10 | O=C(/C=C/c1ccccc1N1CCC(NS(=O)(=O)C2CCCC2)CC1)NO [Example I-27, (E)-3-(2-(4-(cyclopentanesulfonamido)piperidin-1-yl)phenyl)-N-hydroxyacrylamide]
28 | 1 to 10 | O=C(/C=C/c1ccccc1N1CCN(S(=O)(=O)c2ccc3c(c2)OCCO3)CC1)NO [Example I-28, (E)-3-(2-(4-((2,3-dihydrobenzo[b][1,4]di-oxin-6-yl)sulfonyl)piperazin-1-yl)phenyl)-N-hydroxyacrylamide]
29 | 1 to 10 | O=C(/C=C/c1ccccc1N1CCN(S(=O)(=O)c2ccccc2OC(F)(F)F)CC1)NO [Example I-29, (E)-N-hydroxy-3-(2-(4-((2-(trifluoromethoxy)phenyl)sulfonyl)piperazin-1-yl)phenyl)acrylamide]
30 | 1 to 10 | O=C(/C=C/c1ccccc1N1CCN(S(=O)(=O)c2ccc(OC(F)F)cc2)CC1)NO [Example I-30, (E)-3-(2-(4-((4-(difluoromethoxy)phenyl)sulfonyl)piperazin-1-yl)phenyl)-N-hydroxyacrylamide]
31 | 1 to 10 | COc1ccccc1S(=O)(=O)N1CCN(c2ccccc2/C=C/C(=O)NO)CC1 [Example I-31, (E)-N-hydroxy-3-(2-(4-((2-methoxyphenyl)sulfonyl)piperazin-1-yl)phenyl)acrylamide]
32 | 1 to 10 | O=C(/C=C/c1ccccc1N1CCN(S(=O)(=O)c2ccc(CNC(=O)c3ccccc3)s2)CC1)NO [Example I-32, (E)-N-((5-((4-(2-(3-(hydroxyamino)-3-oxoprop-1-en-1-yl)phenyl)piperazin-1-yl)sulfonyl)thiophen-2-yl)methyl)benzamide]
33 | 1 to 10 | Cc1c(S(=O)(=O)N2CCN(c3ccccc3/C=C/C(=O)NO)CC2)sc2ccc(Cl)cc12 [Example I-33, (E)-3-(2-(4-((5-chloro-3-methylbenzo[b]thiophen-2-yl)sulfonyl)piperazin-1-yl)phenyl)-N-hydroxyacrylamide]
34 | 1 to 10 | COc1ccc(OC)c(S(=O)(=O)N2CCN(c3ccccc3/C=C/C(=O)NO)CC2)c1 [Example I-34]
35 | 1 to 10 | O=C(/C=C/c1ccccc1N1CCN(C(=O)C2(c3cnccn3)CC2)CC1)NO [Example I-35, (2E)-N-hydroxy-3-(2-{4-[1-(pyrazin-2-yl)cyclopropanecarbonyl]piperazin-1-yl}phenyl)prop-2-enamide]
